Data as given in patent US20160046904A1, “Method For Culturing Hepatoblast-Like Cells And Culture Product Thereof” (NATIONAL INSTITUTES OF BIOMEDICAL INNOVATION, HEALTH AND …, priority 2013, published 2016).

Experiments:
[1] = test system: HBCs derived from ES cells (H9); test: ALB/CK7 colony count of HBCs cultured on laminin-coated culture dishes (immunostaining); type: cell-based, human; settings: HBCs seeded at 200 cells/cm^2 on laminin-coated dish, medium 3, 5 days after seeding
Experimental: (§1) In Example 1 and Comparative Example 1, with regard to HBCs derived from ES cells obtained in Reference Example 2, properties of cells treated with laminins were confirmed. The coating treatment was performed on cell culture dishes by using various types of human laminins with different isoforms (laminin 111 (LN111), laminin 211 (LN211), laminin 411 ([…]), and laminin 511 (LN511)). The coating treatment was conducted by preparing 20 μg/ml of each Laminin Coating Solution, adding the Laminin Coating Solution to each well at 5 μg/cm^2, and leaving the cell culture dishes at room temperature for 1 hour or more.
In Example 2 and Comparative Example 2, HBCs derived from ES cells (H9) obtained in Reference Example 2 were seeded in each well of various types of laminin-coated culture dishes at 200 cells/cm^2 in a similar manner to Example 1 and Comparative Example 1, the HBCs were cultured by using the medium 3, and the expressions of ALB and CK7 by cultured cells were confirmed. The HBCs were fixed by using a 4% paraformaldehyde solution 5 days after seeding the HBCs, immunostaining was performed, and thereafter, the numbers of colonies which were ALB positive (+)/CK7 positive (+), ALB positive (+)/CK7 negative (−) and ALB negative (−)/CK7 […] were counted. When the cells were cultured in the LN111-coated culture dish, the highest number of the ALB positive (+)/CK7 positive (+) colonies, which were colonies of hepatoblast-like cells, was able to be confirmed.

[2] = test system: HBCs derived from ES cells; test: Proliferation of HBCs on various laminin-coated culture dishes; type: cell-based, human; settings: attached HBCs cultured for 7 days; compared among LN111, LN211, LN411, LN511 coated dishes (FIG. 8)
Experimental: as §1
(§2) Next, the cells on day 9 after treated by the same procedure as in Reference Example 2 were seeded on each well of various types of laminin coated culture dishes at 7.5×10^4 cells/cm^2, the medium was exchanged after 15 minutes, and cells attached to the dishes were used as HBCs and cells not attached to the dishes were used as NHBCs (see FIG. 5). With regard to cells before passage (the cell population which contained both HBCs and NHBCs: before), HBCs, and NHBCs, the expressions of integrin α6 (ITGA6) and integrin β1 (ITGB1) were confirmed. As a result, almost all cells of HBCs were confirmed to be co-positive (FIG. 7). The HBCs attached to the dishes were each further cultured for 7 days. […]

[3] = test system: HBCs derived from ES cells; test: AFP expression of cells cultured on various laminin-coated culture dishes; type: cell-based, human; settings: cells cultured on laminin-coated dish, compared with cells immediately after passage (P0) (FIG. 9)
Experimental: as §1, §2

[4] = test system: HBCs derived from ES cells (H9) and HBCs derived from iPS cells (Dotcom); test: Repeated passage (15 times) of HBCs on LN111-coated culture dish: cell number and AFP flow cytometry; type: cell-based, human
Experimental: In Example 3, the proliferative capacities of HBCs derived from ES cells (H9) obtained in Reference Example 2 and HBCs derived from iPS cells (Dotcom) generated by the same procedure were confirmed. The cells derived from ES cells or those derived from iPS cells on day 9 obtained by treating the cells by the same procedure as in Reference Example 2 were seeded in each well of the LN111-coated culture dish at 7.5×10^4 cells/cm^2, and the medium was exchanged after 15 minutes (the number of times of passage was 0, on day 9). After that, the cells were cultured for from 6 days to 7 days with the medium being exchanged every day, a cell suspension was prepared so that the number of cells was 7.5×10^4 cells/cm^2, and the cells were passaged on the LN111-coated culture dish. Such passage operations were performed 15 times.

[5] = test system: HBCs derived from ES cells (H9); test: Differentiation induction of LN111-maintained HBCs to hepatocytes (HGF, OsM, DEX on Matrigel); type: cell-based, human; settings: HBC P10 maintained on LN111 vs HBC P0; 14 days differentiation
Experimental: In view of the foregoing, in Example 5, HBCs (H9) with the number of passages of 0 (HBC P0), HBCs (H9) with the number of passages of 10 (HBC P10), and HBCs derived from a single cell (HBC clone) were cultured in a medium containing HGF, OsM (20 ng/ml), and DEX (10^−6 M) on Matrigel for 14 days, and the expression of each of marker genes before and after the differentiation induction treatment into liver by HGF, OsM, and DEX was confirmed. Clone cells were obtained by seeding cells on a culture dish at 200 cells/cm^2. The expression of each of gene markers was confirmed by real-time RT-PCR. Commercially available primer sets and reagents were used for real-time RT-PCR measurement. […]
Each of relative expression levels of marker genes of mature hepatocytes was confirmed by defining the expression level by human frozen hepatocytes cultured for 48 hours after being seeded on a culture dish as 1. […] It was confirmed that the differentiation rate into mature hepatocytes of hepatocytes obtained by differentiation induction on the HBCs (H9) with the number of passages of 10 (HBC P10) was higher than that of the hepatocytes obtained by differentiation induction on the HBCs (HBC P0), also from the ASGR1 positive cell rates analyzed by flow cytometry (FIG. 16A) and the amounts of ALB secretion and Urea secretion (FIGS. 16B and 16C).

[6] = test system: HBCs derived from ES cells (H9); test: Differentiation induction of LN111-maintained HBCs to bile duct epithelial cells (EGF, ILGF2, collagen gel); type: cell-based, human; settings: HBC P10 maintained on LN111 vs HBC P0; 14 days differentiation
Experimental: Specifically, in Example 6, HBCs (H9) without passage (HBC P0), HBCs passaged 10 times (HBC P10), and HBCs derived from a single cell (clone) were embedded in collagen gel by using a medium containing EGF (50 ng/ml) and ILGF2 (20 ng/ml), and were cultured for 14 days. Then, the expression of each of marker genes before and after the differentiation induction treatment to a bile duct by EGF and ILGF2 was confirmed. The expression was confirmed by a RT-PCR technique (FIG. 17). Commercially available primer sets and reagents were used for RT-PCR measurement. SOX9 and Type IV collagen are markers of bile duct epithelial cells, and ALB and αAT are markers of mature hepatocytes.
Each of relative expression levels of marker genes of bile duct epithelial cells and mature hepatocytes was confirmed by defining the expression level in cells of […] before being subjected to the differentiation induction as 1. The expressions of markers of bile duct epithelial cells were increased by the differentiation induction treatment. In addition, the expression levels of bile duct marker genes (SOX9 and Type IV collagen) by bile duct epithelial cells which were induced to differentiate from HBC P10 were higher than those which were induced to differentiate from HBC P0 (FIG. 17).

[7] = test system: HBCs from human ES cells (H9); test: Marker positive rates of HBCs passaged 8 times on LN111- or LN111E8-coated culture dish (flow cytometry); type: cell-based
Experimental: By the same procedure as in Example 9, HBCs were seeded to each well of various types of laminin coated culture dishes at 7.5×10^4 cells/cm^2 by using a LN111- or LN111E8-coated culture dish, and the medium was exchanged after 15 minutes (the number of passages of 0, day 9). After that, the cells were cultured for from 6 days to 7 days with the medium being exchanged every day, and a cell suspension was prepared so that the number of cells was 7.5×10^4 cells/cm^2. Then, the cells were passaged on the LN111-coated culture dish or the LN111E8-coated culture dish. At the time when such passage operations were repeated 8 times (P8), the positive rate of AFP (%) was confirmed by flow cytometry analysis. […] In addition, also with regard to markers other than AFP (CD133, EpCAM, ALB, CK7, and CK19), their positive rates were confirmed by flow cytometry analysis at the time when the passage culture was repeated up to 8 times (P8).

| Substance | number of ALB+/CK7+ colonies [1] | number of ALB+/CK7− colonies [1] | number of ALB−/CK7+ colonies [1] | proliferation rate of HBCs [2] | expression of AFP [3] | AFP positive cells ([4]; HBC P1, P10, P15, flow cytometry (FIG. 11)) | proliferation of cultured cells over passages ([4]; passage every 6 to 7 days, 15 passages (FIG. 10)) | differentiation efficiency and differentiation ability to hepatocytes [5] | differentiation ability to bile duct epithelial cells [6] | positive rate of AFP after passage ([7]; passaged 8 times (P8) (FIG. 24)) | positive rates of markers other than AFP (CD133, EpCAM, ALB, CK7, CK19) ([7]; passaged 8 times (P8) (FIG. 25)) |
| --- | --- | --- | --- | --- | --- | --- | --- | --- | --- | --- | --- |
| LN511: human recombinant laminin 511, comparative dish coating | 14 | 2 | 36 |  |  |  |  |  |  |  |  |
| LN211: human recombinant laminin 211, comparative dish coating | 25 | 3 | 12 |  |  |  |  |  |  |  |  |
| LN111: human recombinant laminin 111 (α1β1γ1), used to coat cell culture dishes | 82 | 2 | 5 | highest | expressed AFP in a similar manner to a group of cells immediately after passage (P0) | high expression rates of AFP regardless of the number of passages | continued to proliferate even after passaged 15 times | improved | improved | expressions of AFP were maintained | expressions of all markers were maintained |
| LN411: human recombinant laminin 411, comparative dish coating | 12 | 6 | 31 |  |  |  |  |  |  |  |  |
